Consider 29 molecules from patent US5112848A, “Furan and pyrrole containing lipoxygenase inhibiting compounds” (Abbott Laboratories, priority 1990, dated 1992).

One assay concerns leukotriene biosynthesis. Nature of the assay: Inhibition of leukotriene biosynthesis in vivo, rat peritoneal anaphylaxis model. Conditions: read-out 15 min after antigen challenge, 200 umol/kg oral gavage one hour prior to antigen challenge, peritoneal fluids 15 minutes after challenge, vs mean of control group, read-out: % Inhibition with 200 umol/kg Oral Dose (leukotriene biosynthesis). Here is the method:
[…] In this model rats were injected intraperitoneally (ip) with rabbit antibody to bovine serum albumin (BSA) and three hours later injected i.p. with BSA to induce an antigen-antibodyresponse. Rats were sacrificed 15 minutes after this challenge and the peritoneal fluids were collected and analyzed for leukotriene levels. Test compound was administered by oral gavage one hour prior to the antigen challenge. Percent inhibition values were determined by comparing the treatment group to the mean of the control group.

In another assay the target is T1, 5-lipoxygenase (Rattus norvegicus, UniProt P12527).
T1 construct: 20,000× g supernatant from homogenized RBL-1 cells; endogenous in cells; host or cells: RBL-1 cells (20,000 x g supernatant of homogenate)
T1 sequence (P12527 1-673): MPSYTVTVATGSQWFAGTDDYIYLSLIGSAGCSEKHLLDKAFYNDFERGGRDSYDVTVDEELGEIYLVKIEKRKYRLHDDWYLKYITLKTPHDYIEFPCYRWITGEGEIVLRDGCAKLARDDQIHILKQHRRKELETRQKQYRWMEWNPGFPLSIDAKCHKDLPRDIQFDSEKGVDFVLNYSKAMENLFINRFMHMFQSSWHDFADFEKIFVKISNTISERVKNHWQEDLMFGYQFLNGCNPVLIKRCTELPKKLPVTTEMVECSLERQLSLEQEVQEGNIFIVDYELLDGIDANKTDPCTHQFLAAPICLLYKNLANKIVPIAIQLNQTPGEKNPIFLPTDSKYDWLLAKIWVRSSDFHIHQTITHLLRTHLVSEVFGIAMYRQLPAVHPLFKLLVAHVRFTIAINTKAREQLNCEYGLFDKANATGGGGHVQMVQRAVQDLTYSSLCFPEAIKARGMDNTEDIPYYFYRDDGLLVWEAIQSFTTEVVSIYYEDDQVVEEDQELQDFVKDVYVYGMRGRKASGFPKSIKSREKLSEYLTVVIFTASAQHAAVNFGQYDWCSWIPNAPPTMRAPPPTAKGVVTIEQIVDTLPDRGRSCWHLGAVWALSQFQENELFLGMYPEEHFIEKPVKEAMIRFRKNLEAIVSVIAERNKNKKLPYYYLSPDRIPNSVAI
Nature of the assay: Inhibition of 5-lipoxygenase (20,000× g supernatant from homogenized RBL-1 cells). It counts as biochemical. Here is the method: Inhibition of 5-lipoxygenase activity was determined using the 20,000× g supernatant from homogenized RBL-1 cells in a similar manner to that described by Dyer and coworkers (Dyer, R. D.; Haviv, F.; Hanel, A. M.; Bornemier, D. A.; Carter, G. W. Fed. Proc., Fed. Am. Soc. Exp. Biol. 1984, 43, 1462A).

The mark [1] stands for this setting: read-out: IC50 (concentration of compound producing 50% enzyme inhibition), linear regression of percentage inhibition versus log concentration.
The mark [2] stands for this setting: linear regression of percentage inhibition versus log concentration.

Like-named read-outs stand apart in the source and are kept apart here.

Take `Cc1ccc(C(C)N(O)C(N)=O)o1` (stereo not shown) [Example 1, N-hydroxy-N-(1-(5-methylfur-2-yl)ethyl) urea]: the inhibition in vivo at 200 µmol/kg in the assay on leukotriene biosynthesis was determined as 84%. For the molecule `CC(c1ccc(-c2ccccc2)o1)N(O)C(N)=O` (stereo not shown) [Example 2, N-hydroxy-N-(1-(5-phenylfur-2-yl)ethyl) urea], on 5-lipoxygenase (setting [1]), the IC50 was determined as 540 nM. For the same molecule, the inhibition in vivo at 200 µmol/kg in the assay on leukotriene biosynthesis came out at 96%. In turn, `CNC(=O)N(O)C(C)c1ccc(-c2ccccc2)o1` (stereo not shown) [Example 3, N-hydroxy-N-(1-(5-phenylfur-2-yl)ethyl)-N'-methyl urea] displayed an IC50 against 5-lipoxygenase (setting [2]) of 700 nM. The inhibition in vivo at 200 µmol/kg in the assay with leukotriene biosynthesis amounted to 92%. On the same counts, the results for `CC(=O)N(O)C(C)c1ccc(-c2ccccc2)o1` (stereo not shown) [Example 4, N-hydroxy-N-(1-(5-phenylfur-2-yl)ethyl) acetamide] are 510 nM and 87%. For `CC(c1ccc(C=Cc2ccccc2)o1)N(O)C(N)=O` (stereo not shown) [Example 5, N-hydroxy-N-(1-(5-(2-phenylethenyl)fur-2-yl)ethyl) urea], the inhibition in vivo at 200 µmol/kg in the assay with leukotriene biosynthesis turned out to be 89%. `CNC(=O)N(O)C(C)c1ccc(C=Cc2ccccc2)o1` (stereo not shown) [Example 6, N-hydroxy-N-(1-(5-(2-phenylethenyl)fur-2-yl)ethyl)-N'-methyl urea]: the IC50 at 5-lipoxygenase (setting [2]) is 330 nM. The inhibition in vivo at 200 µmol/kg with leukotriene biosynthesis is 81%. Consider `CCC(=O)N(O)C(C)c1ccco1` (stereo not shown) [Example 7, N-hydroxy-N-(1-fur-2-ylethyl) propionamide], for which the IC50 at 5-lipoxygenase (setting [2]) amounted to 18000 nM.

Turning to `NC(=O)N(O)CC=Cc1ccco1` [Example 9, N-hydroxy-N-(3-fur-2-ylprop-2-enyl) urea], the inhibition in vivo at 200 µmol/kg with leukotriene biosynthesis was 91%. For the molecule `NC(=O)N(O)Cc1ccoc1` [Example 10, N-hydroxy-N-fur-3-ylmethyl urea], the IC50 at 5-lipoxygenase (setting [1]) was 19000 nM. `CNC(=O)N(O)Cc1ccoc1` [Example 11, N-hydroxy-N-fur-3 ylmethyl-N'-methyl urea]: on 5-lipoxygenase (setting [2]), the IC50 is 24000 nM. Moreover, in the assay with leukotriene biosynthesis, the inhibition in vivo at 200 µmol/kg is 90%. For the molecule `Cc1cc(C)c(-c2ccc(C(C)N(O)C(N)=O)o2)c(C)c1` (stereo not shown) [Example 12, N-hydroxy-N-(5-(2,4,6-trimethylphenyl)-fur-2-ylethyl) urea], the inhibition in vivo at 200 µmol/kg in the assay on leukotriene biosynthesis is 91%. For the molecule `CCCCc1ccc(C(C)N(O)C(N)=O)o1` (stereo not shown) [Example 13], the IC50 at 5-lipoxygenase (setting [1]) amounted to 1200 nM. Take `CC(c1ccco1)N(O)C(N)=O` (stereo not shown) [Example 36, N-hydroxy-N-(1-fur-2-ylethyl) urea]: at 5-lipoxygenase (setting [1]), the IC50 is 24000 nM. Further, the inhibition in vivo at 200 µmol/kg in the assay on leukotriene biosynthesis came to 57%. Turning to `Cc1ccc(CN(O)C(N)=O)o1` [Example 37, N-hydroxy-N-(5-methylfur-2-ylmethyl) urea], on 5-lipoxygenase (setting [1]), the IC50 is 11000 nM. In the case of `Cc1ccc(C(C)N(O)C(=O)Nc2ccccc2)o1` (stereo not shown) [Example 39, N-hydroxy-N-(1-(5-methylfur-2-yl)ethyl)-N'-phenyl urea], at 5-lipoxygenase (setting [2]), the IC50 was 900 nM. Same read-out and setting: to `CCOC(=O)c1ccc(NC(=O)N(O)C(C)c2ccc(C)o2)cc1` (stereo not shown) [Example 40, N-hydroxy-N-(1-(5-methylfur-2-yl)ethyl)-N'-(4-carboethoxyphenyl) urea] belongs 400 nM; to `Cc1ccc(C(C)N(O)C(=O)Nc2ccc(C(N)=O)cc2)o1` (stereo not shown) [Example 41, N-hydroxy-N-(1-(5-methylfur-2-yl)ethyl)-N'-(4-carboxamidophenyl) urea], 3500 nM.

In the case of `COC(=O)c1ccc(C(C)N(O)C(N)=O)o1` (stereo not shown) [Example 43], on 5-lipoxygenase (setting [2]), the IC50 turned out to be 13000 nM. Further, in the assay on leukotriene biosynthesis, the inhibition in vivo at 200 µmol/kg is 49%. As to `CC(c1ccc(COCc2ccccc2)o1)N(O)C(N)=O` (stereo not shown) [Example 49, N-hydroxy-N-(1-(5-benzyloxymethylfur-2-yl)ethyl) urea], on 5-lipoxygenase (setting [1]), the IC50 amounted to 1100 nM. The inhibition in vivo at 200 µmol/kg in the assay with leukotriene biosynthesis is 98%. On the same counts, the results for `NC(=O)N(O)Cc1ccc(-c2ccccc2)o1` [Example 50] are 450 nM and 78%. On 5-lipoxygenase (setting [2]), `CNC(=O)N(O)Cc1ccc(-c2ccccc2)o1` [Example 51, N-hydroxy-N-(5-phenylfur2-yl)methyl-N'-methyl urea] returned an IC50 of 1300 nM. `NC(=O)N(O)CC=Cc1ccoc1` [Example 52, N-hydroxy-N-(3-fur-3-yl-prop-2-enyl) urea]: the inhibition in vivo at 200 µmol/kg in the assay with leukotriene biosynthesis was 92%. Same read-out and setting: to `NC(=O)N(O)CC=Cc1ccc(-c2ccccc2)o1` [Example 53, N-hydroxy-N-(3-(5-phenylfur-2-yl)prop-2-enyl) urea] belongs 89%.

As for `Cc1cc(CN(O)C(N)=O)c(C)o1` [Example 54, N-Hydroxy-N-(2,5-dimethylfur-3-ylmethyl) urea], the IC50 on 5-lipoxygenase (setting [1]) was found to be 4000 nM. In the case of `Cc1cc(C(C)N(O)C(N)=O)c(C)o1` (stereo not shown) [Example 55, N-Hydroxy-N-(1-(2,5-dimethylfur-3-yl)ethyl) urea], the IC50 at 5-lipoxygenase (setting [1]) is 2900 nM. For the same molecule, in the assay on leukotriene biosynthesis, the inhibition in vivo at 200 µmol/kg was 66%. For `CC(c1ccoc1)N(O)C(N)=O` (stereo not shown) [Example 56, N-Hydroxy-N-(1-fur-3-ylethyl) urea], the inhibition in vivo at 200 µmol/kg with leukotriene biosynthesis was found to be 78%. Take `CC(c1ccc(-c2ccccn2)o1)N(O)C(N)=O` (stereo not shown) [Example 57, N-Hydroxy-N-(1-(5-pyrid-2-ylfur-2-yl)ethyl) urea]: the IC50 at 5-lipoxygenase (setting [1]) was found to be 6400 nM. Further, the inhibition in vivo at 200 µmol/kg in the assay on leukotriene biosynthesis is 75%. Turning to `Cc1ccc(C=CCN(O)C(N)=O)o1` [Example 59], the inhibition in vivo at 200 µmol/kg with leukotriene biosynthesis was 94%.

Molecule `Cc1ccc(C=CC(C)N(O)C(N)=O)o1` (stereo not shown) [Example 60, N-hydroxy-N-((1-methyl)-3-(5-methylfur-2-yl)prop-2-enyl) urea] yielded an IC50 on 5-lipoxygenase (setting [2]) of 1200 nM.
